biological target: T1, P2X7 (UniProt Q99572); experiment: P2X7 activity of Table 1; type: cell-based; details: pIC50 values for P2X7
T1 sequence (Q99572 1-595): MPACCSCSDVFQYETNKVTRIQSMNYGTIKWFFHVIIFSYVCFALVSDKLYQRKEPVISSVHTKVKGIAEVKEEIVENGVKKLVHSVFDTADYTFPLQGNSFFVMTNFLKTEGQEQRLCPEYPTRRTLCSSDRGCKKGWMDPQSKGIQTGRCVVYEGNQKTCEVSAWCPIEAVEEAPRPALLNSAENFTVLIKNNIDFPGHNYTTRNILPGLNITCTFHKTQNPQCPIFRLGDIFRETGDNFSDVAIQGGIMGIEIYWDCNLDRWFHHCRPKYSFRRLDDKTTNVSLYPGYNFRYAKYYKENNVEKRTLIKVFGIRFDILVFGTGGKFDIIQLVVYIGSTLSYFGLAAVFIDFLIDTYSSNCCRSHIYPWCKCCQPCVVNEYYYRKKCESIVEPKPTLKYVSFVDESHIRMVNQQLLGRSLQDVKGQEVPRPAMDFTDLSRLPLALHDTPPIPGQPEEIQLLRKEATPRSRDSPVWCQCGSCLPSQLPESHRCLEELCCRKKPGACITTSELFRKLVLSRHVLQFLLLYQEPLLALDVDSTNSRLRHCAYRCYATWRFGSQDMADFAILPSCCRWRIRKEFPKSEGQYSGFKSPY
In short: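 FLIPR calcium flux with fluo-3 in 1321N1 cells expressing human P2X7 and HEK293 cells expressing rat P2X7, in HBSS with 2 mM CaCl2 and 2.5 mM probenecid. Antagonist pre-incubated 20 min at room temperature, then BzATP added (100 μM human, 5 μM rat). Peak response over 5 min normalised to 5 μM ionomycin.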

Row | pIC50 | SMILES
1 | 7.455 | Cc1cnn(-c2cc(NC(=O)C3=CNC(=O)C[C@H]3c3ccc(F)cc3)c(C)cc2F)c(=O)c1 [Compound 143, (S)-4-(4-Fluoro-phenyl)-6-oxo-1,4,5,6-tetrahydro-pyridine-3-carboxylic acid [4-fluoro-2-methyl-5-(4-methyl-6-oxo-6H-pyridazin-1-yl)-phenyl]-amide]
2 | 7.265 | Cc1cnn(-c2cc(NC(=O)C3=CN(C)C(=O)C[C@H]3c3ccc(F)cc3)c(C)cc2F)c(=O)c1 [Compound 145, (S)-4-(4-Fluoro-phenyl)-1-methyl-6-oxo-1,4,5,6-tetrahydro-pyridine-3-carboxylic acid [4-fluoro-2-methyl-5-(4-methyl-6-oxo-6H-pyridazin-1-yl)-phenyl]-amide]
3 | 5.74 | CN1C=C(C(=O)Nc2cc(-n3ncccc3=O)ccc2F)[C@H](c2ccc(F)cc2)CC1=O [Compound 146, (S)-4-(4-Fluoro-phenyl)-1-methyl-6-oxo-1,4,5,6-tetrahydro-pyridine-3-carboxylic acid [2-fluoro-5-(6-oxo-6H-pyridazin-1-yl)-phenyl]-amide]
4 | 7.41 | Cc1cc(F)c(-c2cc(C)n(CCO)n2)cc1NC(=O)C1=CN(C)C(=O)C[C@H]1c1ccc(F)cc1 [Compound 148, (S)-4-(4-Fluoro-phenyl)-1-methyl-6-oxo-1,4,5,6-tetrahydro-pyridine-3-carboxylic acid {4-fluoro-5-[1-(2-hydroxy-ethyl)-5-methyl-1H-pyrazol-3-yl]-2-methyl-phenyl}-amide]

From patent US8163929B2, “Dihydropyridone amides as P2X7 modulators” (Roche Palo Alto LLC, priority 2008, dated 2012)
